Data as given in patent publication US3966745A, “Vinvamine series cycloalkyl-alkyl esters” (Synthelabo, priority 1973, dated 1976).

Experiments:
[1] = Acute toxicity (LD50, mice, intraperitoneal); conditions: mouse, in vivo, ip; intraperitoneal administration; Swiss mice of both sexes; method of Miller and Tainter
Procedure: The tests were carried out on mice of the Swiss strain of both sexes, each weighing 20 g on average. The LD50 's were calculated in accordance with the method of Miller and Tainter (Proc. Soc. exp. Biol. Med., 1944, 57, 261).

mice = test: Hypobaric anoxia in mice (survival time); format: in vivo, male mice of the Swiss strain; conditions: for ED (100% increase in survival time): Mus musculus, ip, intraperitoneal administration, dose which increases survival time by 100%, residual pressure 19 cm of Hg, read-out: MAD (mean active dose), absolute value; for therapeutic index relative to that of vincamine (times more favourable): from LD50 and MAD, mice, intraperitoneal, versus vincamine
Source text: The mice are kept in an atmosphere which is depleted in oxygen by creating a partial vacuum. The degree of anoxia was chosen after preliminary tests. The survival time of the control and treated animals is noted.
The chamber into which the animals are introduced is a chemical desiccator, divided into 7 compartments. Calcium oxide is placed in this chamber in order to absorb the expired carbon dioxide. This desicator is connected to a vacuum pump and to a manometer to measure the residual pressure.
The injections are carried out using a volume of 0.5 ml per 20 g of body weight.
7 animals are introduced at the same time into the chamber, i.e. 1 control mouse (treated with physiological serum), 3 mice each treated with a different dose of a reference substance, and three mice each treated with a different dose of a test substance.
The chamber is then evacuated until the residual pressure therein is 19 cm of Hg (this is achieved in approximately 30 seconds).
The survival time i.e. the time until the animals stop breathing of each of the animals is then recorded. […] The percentage increases are calculated from values obtained for each batch of animals.
The reference substance was vincamine.

Structure (SMILES)	LD50 [1] [mg/kg]	ED (100% increase in survival time) (mice) [mg/kg]	therapeutic index relative to that of vincamine (times more favourable) (mice) [times]
CCC12C=C(C(=O)OCC3CC3)n3c4c(c5ccccc53)CCN(CCC1)C42 (stereo not shown) [SL 73-005, Cyclopropylmethyl apovincaminate]	380	6	2.5
CCC12CCCN3CCc4c(n(c5ccccc45)C(C(=O)OCC4CC4)C1)C32 (stereo not shown) [SL 73-041, Cyclopropylmethyl desoxyvincaminate]	260	6	1.6
CCC12CCCN3CCc4c(n(c5ccccc45)C(O)(C(=O)OCC4CC4)C1)C32 (stereo not shown) [SL 72-401, Cyclopropylmethyl vincaminate]	220	11	–
CC[C@]12CCCN3CCc4c(n(c5ccccc45)[C@@](O)(C(=O)OC)C1)[C@@H]32 [Vincamine, vincamine, reference compound]	215	8	–
